Patent US6608048B2, “Tricyclic protein kinase inhibitors” (Wyeth Holdings, priority 2000, dated 2003)

What was measured:
[1] = system: Human epidermoid tumors (A431); experiment: In vivo inhibition of the growth of human epidermoid tumors (A431); conditions: for S/T (# of Survivors/# of Treated): Day +21 post tumor staging
Method: BALB/c nu/nu female mice (Charles River, Wilmington, Mass.) were used in the in vivo standard pharmacological test procedures. Human epidermoid carcinoma cells A-431 (American Type Culture Collection, Rockville, Md. #CRL-155) were grown in vitro as described above. A unit of 5×10^6 cells were injected subcutaneously into mice. When tumors attained a mass of between 100 and 150 mg, the mice were randomized into treatment groups (day zero). Mice were treated orally (PO) once a day on days 1 through 10 post staging with doses of either 40, 20, 10, 3 or 1 mg/kg/dose of the compound to be evaluated in 0.2% Klucel. Control animals received no drug. Tumor mass was determined every 7 days [(length×width^2)/2] for 28 days post staging. Relative tumor growth (Mean tumor mass on day 7, 14, and 21 divided by the mean tumor mass on day zero) is determined for each treatment group. The % T/C (Tumor/Control) is determined by dividing the relative tumor growth of the treated group by the relative tumor growth of the placebo group and multiplying by 100. A compound is considered to be active if the % T/C is found to be=42%.

[2] = target: T1, EGF-R Kinase (recombinant enzyme) (Homo sapiens, UniProt P00533); experiment: Inhibition of Epidermal Growth Factor Receptor Kinase (EGF-R) using recombinant enzyme; format: biochemical; conditions: RR-SRC peptide substrate
T1 construct: containing the EGFR cDNA encoding amino acids 645-1186 preceded by Met-Ala-(Ris)6; made in house; host or cells: Sf9 insect cells, recombinant baculovirus vHcEGFR52
Method: Representative test compounds were evaluated for their ability to inhibit the phosphorylation of the tyrosine residue of a peptide substrate catalyzed by the enzyme epidermal growth factor receptor kinase. […] The enzyme used in this assay is the His-tagged cytoplasmic domain of EGFR. […] A cytoplasmic extract was prepared using 1% Triton X-100 and applied to Ni-NTA column.
Test compounds were made into 10 mg/mL stock solutions in 100% dimethylsulfoxide (DMSO).
The IC50 is the concentration of test compound needed to reduce the total amount of phosphorylated substrate by 50%. The % inhibition of the test compound was determined for at least three different concentrations and the IC50 value was evaluated from the dose response curve.
CPM(control) is in units of counts per minute and was a number expressing the amount of radiolabeled ATP (γ-^33P) incorporated into the RR-SRC peptide substrate by the enzyme after 90 minutes at room temperature in the absence of test compound as measured by liquid scintillation counting. The CPM values were corrected for the background counts produced by ATP in the absence of the enzymatic reaction.

T1 sequence (P00533 669-1210): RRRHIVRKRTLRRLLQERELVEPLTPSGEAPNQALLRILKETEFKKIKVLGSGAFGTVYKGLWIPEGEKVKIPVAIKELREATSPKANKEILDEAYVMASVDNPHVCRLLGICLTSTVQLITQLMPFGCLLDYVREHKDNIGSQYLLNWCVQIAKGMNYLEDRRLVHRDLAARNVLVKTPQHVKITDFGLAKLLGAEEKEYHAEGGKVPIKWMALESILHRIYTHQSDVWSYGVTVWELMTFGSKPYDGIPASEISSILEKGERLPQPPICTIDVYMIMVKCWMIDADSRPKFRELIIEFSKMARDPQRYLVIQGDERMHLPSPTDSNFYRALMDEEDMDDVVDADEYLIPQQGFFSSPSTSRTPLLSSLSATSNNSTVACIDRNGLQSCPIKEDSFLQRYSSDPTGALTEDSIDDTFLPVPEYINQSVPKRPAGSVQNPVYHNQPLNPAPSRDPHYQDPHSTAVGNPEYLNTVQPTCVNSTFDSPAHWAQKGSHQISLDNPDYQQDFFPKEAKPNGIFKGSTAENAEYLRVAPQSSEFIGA

`CCN1CCN(CCCCN2CCOc3cc4c(Nc5ccc(Cl)cc5Cl)c(C#N)cnc4cc32)CC1` [Example 24, 9-(2,4-Dichloroanilino)-4-[4-(4-ethyl-1-piperazinyl)butyl]-3,4-dihydio-2H-[1,4]oxazino[2,3-g]quinoline-8-carbonitrile] gave a melting point of 97 to 98 °C.
Work on `N#Cc1cnc2cc3c(cc2c1Nc1ccc(Cl)cc1Cl)OCCN3` [Example 22, 9-(2,4-Dichloroanilino)-3,4-dihydro-2H-[1,4]oxazino[2,3-g]quinoline-8-carbonitrile] yielded a melting point of 254 to 255 °C.
`N#Cc1cnc2cc3c(cc2c1Nc1ccc(F)c(Cl)c1)N(CCCCCl)CCO3` [Example 11, 1-(4-Chlorobutyl)-9-(3-chloro-4-fluoroanilino)-2,3-dihydro-1H-[1,4]oxazino[3,2-g]quinoline-8-carbonitrile] gave a melting point of 78 to 79 °C.
With `CN(C)C/C=C/C(=O)N1CCOc2cc3ncc(C#N)c(Nc4ccc(F)c(Cl)c4)c3cc21` [Example 9, 9-(3-Chloro-4-fluoroanilino)-1-[(2E)-4-(dimethylamino)-2-butenoyl]-2,3-dihydro-1H-[1,4]oxazino[3,2-g]quinoline-8-carbonitrile] the “S/T (# of Survivors/# of Treated)” value ([1]; 1 mg/kg/dose PO, days 1 through 10) was 5/5, the “S/T (# of Survivors/# of Treated)” value ([1]; 3 mg/kg/dose PO, days 1 through 10) was 5/5 and the “RTG (relative tumor growth) Day 21” value ([1]; 10 mg/kg/dose PO, days 1 through 10, Day 21) was 11.09. The “S/T (# of Survivors/# of Treated)” value ([1]; 10 mg/kg/dose PO, days 1 through 10) was 5/5, the “S/T (# of Survivors/# of Treated)” value ([1]; 20 mg/kg/dose PO, days 1 through 10) was 5/5 and the “S/T (# of Survivors/# of Treated)” value ([1]; 40 mg/kg/dose PO, days 1 through 10) was 5/5. For the same compound, the “inhibition of tumor growth in vivo (in words)” value ([1]; A431 tumors in mice, PO) was “effective inhibitor of tumor growth in vivo”.
`N#Cc1cnc2cc3c(cc2c1Nc1ccc(F)c(Cl)c1)NCCO3` [Example 7, 9-(3-Chloro-4-fluoroanilino)-2,3-dihydro-1H-[1,4]oxazino[3,2-g]quinoline-8-carbonitrile] showed a melting point of 244 to 245 °C.
In the case of `CN(C)CCCCN1CCOc2cc3ncc(C#N)c(Nc4ccc(F)c(Cl)c4)c3cc21` [Example 12, 9-(3-Chloro-4-fluoroanilino)-1-[4-(dimethylamino)butyl]-2,3-dihydro-1H-[1,4]oxazino[3,2-g]quinoline-8-carbonitrile], the IC50 [2] is reported as 5 nM and the melting point is reported as 105 °C.
Work on `CN(C)CCCC(=O)N1CCOc2cc3ncc(C#N)c(Nc4ccc(F)c(Cl)c4)c3cc21` [Example 10, 9-(3-Chloro-4-fluoroanilino)-1-[4-(dimethylamino)butanoyl]-2,3-dihydro-1H-[1,4]oxazino[3,2-g]quinoline-8-carbonitrile] yielded an IC50 [2] of 200 nM and a melting point of 165 °C.
